Measured values taken from US11020422B2, “Cyclodextrin for the treatment of lysosomal storage diseases” (The United States of America, as represented by the …, priority 2012, dated 2021).

Experiments:
[1] = system: Wolman fibroblasts; experiment: Amplex-Red cholesterol assay in Wolman fibroblasts; assay type: cell-based, human; conditions: cyclodextrins alone; other lysosomal storage disorders (FIG. 1)
Method: (§1) Amplex-Red Cholesterol Assay—Total cholesterol in patient cells was measured by the Amplex-Red Cholesterol Assay Kit (Invitrogen). The unesterified cholesterol was determined using the same kit without the enzyme […]. Esterified cholesterol was determined as the difference between the total and unesterified cholesterol values. The cells were seeded to black, tissue culture-treated 96-well, 384-well or 1536-well plates at 4000, 1000, 300 cells/well in 100, 20 or 5 μl medium by a Multidrop Combi dispenser (Thermo Scientific, Waltham, Mass.) and cultured for 24 hr. The assay plates were added with compound dilution in DMSO solution using a Pintool station (Klaypsys, San Diego, Calif.) and cultured for 3 days. The cells were washed twice manually for 96-well or 384-well plates or using a centrifugation method in which the inverted plates were placed on a stack of paper towel and centrifuged at 800 rpm for 1 min followed by addition of 7 μl/well PBS (added gently with a 45 degree angled liquid dispenser (Klaypsys). The cholesterol assay mixture from the kit was added at 100, 20 or 2.5 μl/well for 96-well, 384-well or 1536-well plates and incubated for 1 hr at 37° C. The resulted fluorescence intensity was measured with excitation of 560 (±10) and emission of 590 (±10) in a fluorescence plate reader (Tecan, Durham, N.C.).

[2] = system: Wolman fibroblasts; experiment: β-Hexosaminidase (HEXB) release, lysosomal exocytosis; assay type: cell-based, human; conditions: for exocytosis: cyclodextrins, wild type and Wolman cells, assay not stated
Method: Measurement of β-Hexosaminidase (HEXB) Release—Fibroblasts were cultured in 24-well plates at 30,000 cells/well in 0.4 ml medium for one day at 37° C. After being washed twice with the assay buffer (DMEM with 2 mM D-mannose 6-phosphate sodium salt), the cells with 0.4 ml/well the assay buffer were incubated at 37° with 0.2 ml/well compound in assay buffer. […] The rest of assay buffer in the 24-well plate was discarded followed by addition of 0.6 ml 1% Triton-X100 in dH2O to lyse the cells. After incubation at 37° C. for 30 min. 6 μl/well cell lysate were added to the 96-well plate with 24 μl assay buffer followed by 90 μl/well 2.25 mM HEXB substrate, 4-Methylumbelliferyl N-acetyl-β-D-glucosaminide (Sigma-Aldrich, #M2133), in a 25 mM citric acid buffer at pH 4.5. The 96-well plate was then measured in the Tecan fluorescence plate reader (Ex=365±20 nm and Em=460±20 nm) after 1 hr incubation at 37° C. and addition of 100 μl/well stop solution (1 M glycine and 1 M NaOH at pH 10.5).
FIG. 3. […] We measured lysosomal exocytosis in delta-T-treated Wolman fibroblasts by determining the activity of beta-hexosaminidase (HEXB), a lysosomal enzyme, in the extracellular medium.
In brief, the level of lysosomal exocytosis was determined by measuring the level of the lysosomal enzyme HEXB secreted into the culture medium following treatment with drug.

[3] = system: NPC1 skin fibroblasts; experiment: Cholesterol accumulation (Amplex-red, filipin) and enlarged lysosomes (Lysotracker) in NPC1 skin fibroblasts; assay type: cell-based, human; conditions: NPC cells
Method: as §1

[4] = system: primary NPC fibroblasts; conditions: primary NPC fibroblasts / LSD fibroblast; reported; cited from earlier work
[5] = system: NPC cells; conditions: NPC / NPC1 cells; reported; cited from earlier work
[6] = system: Wolman fibroblasts; experiment: Nile Red staining of neutral lipids in Wolman fibroblasts; conditions: cultured with compound for 3 days
Method: Nile-red Staining—The cells were cultured and treated as described above in 96-well plates. On the experimental day, cells were washed two times with PBS and live-stained with 1 μM Nile-red dye solution (prepared in cell culture medium) at 100 μl/well followed by an incubation at 37° C. for 10 min. After washed twice with PBS, the cells were fixed in 3.2% paraformaldehyde in PBS at 100 μl/well 1 μg/ml Hoechst 33342 (Invitrogen) in PBS and incubation at RT for 30 min. The plate was washed twice with PBS and the images were measured in Incell2000 imaging plate reader with a FTTC filter set (Ex=480±20 nm and Ex=525±36 nm) for the neutral lipids (cholesteryl esters and triglycerides) and a DAPI filter set for Hoechst nuclear staining.
(Nile Red) Cells were cultured in the presence of delta tocopherol, alpha tocopherol and MBCD plus in combination for 3 days and then stained for neutral lipid with Nile red.
Wolman fibroblasts were treated with δ-tocopherol, α-tocopherol, methyl-β-cyclodextrin, or combinations of δ-tocopherol and methyl-β-cyclodextrin or α-tocopherol and methyl-β-cyclodextrin. […] To further characterize the effect of treatment on lipid accumulation, treated fibroblasts were evaluated using a Nile Red assay to measure neutral lipid accumulation. […] The Nile Red staining was visualized by fluorescent microscopy.

Structure (SMILES) | exocytosis [2] | cholesterol accumulation [1] | cholesterol accumulation [3] | ranking order of cholesterol reduction effect [3] | lysosomal exocytosis [4] | cholesterol efflux, accumulation or storage [5] | neutral lipid accumulation (Nile red) ([6]; FIG. 2) | neutral lipid accumulation (Nile red) ([6]; FIG. 2, listed as Alpha Tocopherol) | lysosomal exocytosis as determined by HEXB secretion ([2]; Wolman fibroblasts, FIG. 3)
COc1cc(/C=C/C(=O)CC(=O)/C=C/c2ccc(O)c(OC)c2)ccc1O [curcumin] | – | – | – | – | – | reduce cholesterol storage | – | – | –
OC[C@H]1O[C@@H]2O[C@H]3[C@H](O)[C@@H](O)[C@@H](O[C@H]4[C@H](O)[C@@H](O)[C@@H](O[C@H]5[C@H](O)[C@@H](O)[C@@H](O[C@H]6[C@H](O)[C@@H](O)[C@@H](O[C@H]7[C@H](O)[C@@H](O)[C@@H](O[C@H]8[C@H](O)[C@@H](O)[C@@H](O[C@H]9[C@H](O)[C@@H](O)[C@@H](O[C@H]1[C@H](O)[C@H]2O)O[C@@H]9CO)O[C@@H]8CO)O[C@@H]7CO)O[C@@H]6CO)O[C@@H]5CO)O[C@@H]4CO)O[C@@H]3CO [gamma-CD, γ-cyclodextrin] | enhance exocytosis | can reduce cholesterol accumulation | can reduce cholesterol accumulation | MBCD>alpha-CD>gamma-CD | – | – | – | – | –
Cc1c(C)c2c(c(C)c1O)CC[C@@](C)(CCC[C@H](C)CCC[C@H](C)CCCC(C)C)O2 [α-tocopherol] | – | – | – | – | – | – | failed to show any effect | not as potent | significant increases in lysosomal exocytosis

The next lines start with results.

exocytosis [2] | Structure (SMILES) | cholesterol accumulation [1] | cholesterol accumulation [3] | ranking order of cholesterol reduction effect [3] | lysosomal exocytosis [4] | cholesterol efflux, accumulation or storage [5] | neutral lipid accumulation (Nile red) ([6]; FIG. 2) | neutral lipid accumulation (Nile red) ([6]; FIG. 2, listed as Alpha Tocopherol) | lysosomal exocytosis as determined by HEXB secretion ([2]; Wolman fibroblasts, FIG. 3)
enhance exocytosis | OC[C@H]1O[C@@H]2O[C@H]3[C@H](O)[C@@H](O)[C@@H](O[C@H]4[C@H](O)[C@@H](O)[C@@H](O[C@H]5[C@H](O)[C@@H](O)[C@@H](O[C@H]6[C@H](O)[C@@H](O)[C@@H](O[C@H]7[C@H](O)[C@@H](O)[C@@H](O[C@H]1[C@H](O)[C@H]2O)O[C@@H]7CO)O[C@@H]6CO)O[C@@H]5CO)O[C@@H]4CO)O[C@@H]3CO [alpha-CD, α-cyclodextrin] | can reduce cholesterol accumulation | can reduce cholesterol accumulation | MBCD>alpha-CD>gamma-CD | – | – | – | – | –
enhance exocytosis | OC[C@H]1O[C@@H]2O[C@H]3[C@H](O)[C@@H](O)[C@@H](O[C@H]4[C@H](O)[C@@H](O)[C@@H](O[C@H]5[C@H](O)[C@@H](O)[C@@H](O[C@H]6[C@H](O)[C@@H](O)[C@@H](O[C@H]7[C@H](O)[C@@H](O)[C@@H](O[C@H]8[C@H](O)[C@@H](O)[C@@H](O[C@H]1[C@H](O)[C@H]2O)O[C@@H]8CO)O[C@@H]7CO)O[C@@H]6CO)O[C@@H]5CO)O[C@@H]4CO)O[C@@H]3CO [beta-CD, β-cyclodextrin] | can reduce cholesterol accumulation | can reduce cholesterol accumulation | – | increased exocytosis | – | – | – | –
